Where two headings read alike, the source gives them in different places.
Columns and labels:
Assay type in all cases: cell-based
Aβ-40 = assay: MSD Human (6E10) Ab 3-PLEX elisa, conditioned media of 2B7 cells: Aβ-40; settings: for IC50: Aβ-40 (superscript b)
Method in brief: (§1)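 Each Aβ peptide was measured by MSD 6E10 3-plex electrochemiluminescence against its own seven-point standard curve. Samples were conditioned media from 2B7 cells exposed to compound for 5 hours at 37° C with 1% DMSO. Percent-vehicle values were fitted to a 4-parameter curve to give IC50.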

Aβ-38 = assay: MSD Human (6E10) Ab 3-PLEX elisa, conditioned media of 2B7 cells: Aβ-38; settings: for IC50: Aβ-38 (superscript a)
Method in brief: as §1

Aβ-42 = assay: MSD Human (6E10) Ab 3-PLEX elisa, conditioned media of 2B7 cells: Aβ-42; settings: for IC50: Aβ-42 (superscript c)
Method in brief: as §1

[1] = Homo sapiens, read-out: 50% reduction value
[2] = Homo sapiens, read-out: IC50 range

Structure (SMILES) | IC50 (Aβ-38; [1]) [nM] | IC50 (Aβ-42; [1]) [nM] | IC50 (Aβ-42; [2]) [nM] | IC50 (Aβ-40; [1]) [nM] | IC50 (Aβ-38; [2]) [nM] | other results
CO[C@@H](C1C[C@@H](C)[C@H]2C(O1)[C@H](O)[C@@]1(C)C3CC[C@H]4C(C)(C)C(OC(=O)NC5COC5)CC[C@@]45C[C@@]35CC[C@]21C)C(C)(C)O (stereo partly drawn) | < 1000 | < 1000 | < 1000 | – | – | inhibition at 20 µM (Aβ-40; Homo sapiens, Aβ-40, 20 μM): 25 to 75%
CC1CC(C(OC(=O)C2CCOC2)C(C)(C)O)OC2C1C1(C)CCC34CC35CCC(OC3CN(C6COC6)CCO3)C(C)(C)C5CCC4C1(C)C2O (stereo not drawn) | – | – | – | – | – | IC50 (Aβ-40; read-out: 50% reduction value): 1000 to 10000 nM; IC50 (Aβ-38; read-out: 50% reduction value): 1000 to 10000 nM; IC50 (Aβ-38; read-out: IC50 range): < 1000 nM; IC50 (Aβ-42; read-out: 50% reduction value): 1000 to 10000 nM
C[C@@H]1CC(C(O)C(C)(C)C)OC2[C@H]1[C@@]1(C)CC[C@@]34C[C@@]35CC[C@H](O)C(C)(C)[C@@H]5CCC4[C@]1(C)[C@H]2O (stereo partly drawn) | 1000 to 10000 | – | – | > 10000 | – | inhibition at 20 µM (Aβ-42; Homo sapiens, Aβ-42, 20 μM): 25 to 75%
CC(C)C(=O)N1CCO[C@@H](O[C@H]2CC[C@]34C[C@]35CC[C@]3(C)[C@@H]6C(OC([C@H](O)C(C)C)C[C@H]6C)[C@H](O)[C@@]3(C)C5CC[C@H]4C2(C)C)C1 (stereo partly drawn) | 1000 to 10000 | 1000 to 10000 | – | > 10000 | 1000 to 10000 | –
C[C@@H]1CC(COC(=O)N(C)C)OC2[C@H]1[C@@]1(C)CC[C@@]34C[C@@]35CC[C@H](O)C(C)(C)[C@@H]5CCC4[C@]1(C)[C@H]2O (stereo partly drawn) | – | – | – | > 10000 | – | inhibition at 20 µM (Aβ-40; Homo sapiens, Aβ-40, 20 μM): 25 to 75%; inhibition at 4 µM (Aβ-38; Homo sapiens, Aβ-38, 4 μM): 25 to 75%; inhibition at 20 µM (Aβ-42; Homo sapiens, Aβ-42, 20 μM): 25 to 75%
CO[C@@H](C1C[C@@H](C)[C@H]2C(O1)[C@H](O)[C@@]1(C)C3CC[C@H]4C(C)(C)C(OC(=O)N5CCC5)CC[C@@]45C[C@@]35CC[C@]21C)C(C)(C)O (stereo partly drawn) | 1000 to 10000 | 1000 to 10000 | – | > 10000 | – | –
CC(=O)N(Cc1ccccc1)CC1CC(C)C2C(O1)C(O)C1(C)C3CCC4C(C)(C)C(O)CCC45CC35CCC21C (stereo not drawn) [drawing 1207] | – | – | – | – | – | IC50 (Aβ-40; read-out: 50% reduction value): 1000 to 10000 nM; IC50 (Aβ-38; read-out: 50% reduction value): 1000 to 10000 nM; IC50 (Aβ-42; read-out: 50% reduction value): 1000 to 10000 nM; IC50 (Aβ-42; read-out: IC50 range): < 1000 nM
CCNC(=O)O[C@H](C(C)C)C1C[C@@H](C)[C@H]2C(O1)[C@H](O)[C@@]1(C)C3CC[C@H]4C(C)(C)C(OC(N)=O)CC[C@@]45C[C@@]35CC[C@]21C (stereo partly drawn) | < 1000 | < 1000 | – | 1000 to 10000 | – | –
C[C@@H]1CC(COc2ncccn2)OC2C1[C@@]1(C)CC[C@@]34C[C@@]35CC[C@H](O[C@H]3CN(C6COC6)CCO3)C(C)(C)[C@@H]5CCC4[C@]1(C)[C@H]2O (stereo partly drawn) | 1000 to 10000 | 1000 to 10000 | 1000 to 10000 | 1000 to 10000 | 1000 to 10000 | IC50 (Aβ-40; [2]): 1000 to 10000 nM
CC(=O)OCC1CC(C)C2C(O1)C(O)C1(C)C3CCC4C(C)(C)C(OC5OCC(O)C(O)C5O)CCC45CC35CCC21C (stereo not drawn) [drawing 1206] | – | – | – | – | – | % Inh. (range) (Aβ-40; Aβ-40, 20 μM): E^a (20 μM) E^b (20 μM) E^c (20 μM) (% inhibition of 25-75%); % Inh. (range) (Aβ-38; Aβ-38, 20 μM): E^a (20 μM) E^b (20 μM) E^c (20 μM) (% inhibition of 25-75%); % Inh. (range) (Aβ-42; Aβ-42, 20 μM): E^a (20 μM) E^b (20 μM) E^c (20 μM) (% inhibition of 25-75%)
CC(C)[C@@H](OC(=O)N1CCC1)C1C[C@@H](C)[C@H]2C(O1)[C@H](O)[C@@]1(C)C3CC[C@H]4C(C)(C)C(OC(=O)N5CCN(S(C)(=O)=O)CC5)CC[C@@]45C[C@@]35CC[C@]21C (stereo partly drawn) | < 1000 | < 1000 | < 1000 | 1000 to 10000 | < 1000 | IC50 (Aβ-40; [2]): 1000 to 10000 nM
CC1CC(C(OC(=O)CC2CC2)C(C)(C)O)OC2C1C1(C)CCC34CC35CCC(OC3CN(C6COC6)CCO3)C(C)(C)C5CCC4C1(C)C2O (stereo not drawn) | – | – | – | – | – | IC50 (Aβ-40; read-out: 50% reduction value): 1000 to 10000 nM; IC50 (Aβ-40; read-out: IC50 range): 1000 to 10000 nM; IC50 (Aβ-38; read-out: 50% reduction value): < 1000 nM; IC50 (Aβ-38; read-out: IC50 range): < 1000 nM; IC50 (Aβ-42; read-out: 50% reduction value): < 1000 nM; IC50 (Aβ-42; read-out: IC50 range): < 1000 nM
CCC(=O)O[C@@H]([C@H]1C[C@@H](C)C2C(O1)[C@H](O)[C@@]1(C)[C@@H]3CC[C@H]4C(C)(C)[C@@H](O)CC[C@@]45C[C@@]35CC[C@]21C)C(C)(C)O (stereo partly drawn) [drawing 1197] | > 10000 | > 10000 | – | > 10000 | – | –
CC(=O)O[C@@H]([C@H]1C[C@@H](C)C2C(O1)C(=O)[C@@]1(C)[C@@H]3CC[C@H]4C(C)(C)[C@@H](O[C@@H]5OC[C@@H](O)[C@H](O)[C@H]5O)CC[C@@]45C[C@@]35CC[C@]21C)C(C)(C)O (stereo partly drawn) [drawing 1230] | 1000 to 10000 | > 10000 | < 1000 | 1000 to 10000 | 1000 to 10000 | –
CC(=O)OC(C1CC(C)C2C(O1)C(O)C1(C)C3CCC4C(C)(C)C(OC(=O)C5CNC5)CCC45CC35CCC21C)C(C)(C)O (stereo not drawn) [drawing 1205] | – | – | – | – | – | IC50 (Aβ-40; read-out: 50% reduction value): < 1000 nM; IC50 (Aβ-40; read-out: IC50 range): 1000 to 10000 nM; IC50 (Aβ-38; read-out: 50% reduction value): < 1000 nM; IC50 (Aβ-38; read-out: IC50 range): < 1000 nM; IC50 (Aβ-42; read-out: 50% reduction value): < 1000 nM; IC50 (Aβ-42; read-out: IC50 range): < 1000 nM
CO[C@@H]([C@H]1C[C@@H](C)[C@H]2[C@H](O1)[C@H](O)[C@@]1(C)[C@@H]3CC[C@H]4C(C)(C)[C@@H](OC5CN(C(=O)C(C)C)CCO5)CC[C@@]45C[C@@]35CC[C@]21C)C(C)(C)O (stereo partly drawn) | < 1000 | < 1000 | < 1000 | 1000 to 10000 | < 1000 | –

From patent publication US20110251379A1, “COMPOUNDS USEFUL FOR TREATING NEURODEGENERATIVE DISORDERS” (Satori Pharmaceuticals, Inc., priority 2010, published 2011)
